The source of these data is patent US20060240117A1, “Snake powder extract for treatment of cancer” (priority 2002, published 2006).

The term mortality denotes the share of the test organisms that died. A low value points to a weak lethal effect.

One data set relates to tumor cell lines. In words: Tumor cell proliferation, oxygen biosensor. The data set is classed as cell-based. The following applies: DMSO, ethanol and PBS extracts; FIGS. 6, 7, 8. The method, then:
The following cell lines were utilized in the tests listed above: • Leukemia/Lymphoma: K562, Raji, Jurkatt, CEM; • Breast Carcinoma MCF-7, MDA-MB-231, MD-MB-468; • Prostate Carcinoma LNCaP, PC-3; • Colorectal Carcinoma: HT-29, HCT-116; • Pancreatic Carcinoma: PANC-1; • Gliobastaoma: GL10-1.
The DMSO and ETHANOL extract was prepared by the following process: • 4 g of powder was extracted with each • the extract was evaporated utilizing a speed vacuum centrifuge • when dried the extract was re-suspended in fresh solution at 1 g/ml. • the concentration of extract used ranges from 0.1 to 100 mg/ml
The PBS solution was prepared as follows: • dissolve 1 g/ml of powder within PBS solution • the concentration of extract used ranges from 0.1 to 100 mg/ml
Referring to FIGS. 6, 7, and 8 the effect of snake extract on tumor cell proliferation utilizing the DMSO, ethanol, and PBS solutions, is respectively analyzed. The methodology used to analyze tumor cell proliferation was oxygen biosensor. With this methodology culture plates are coated with an oxygen sensitive fluorescent compound embedded in a gas-permeable and hydrophobic matrix permanently attached to the bottom of a multi-well plate. The amount of fluorescence correlates directly to the rate of oxygen consumption in the well, providing a signal that can be directly correlated to cell growth.

A further data set relates to Artemia salina nauplii. In words: Brine shrimp lethality assay. The data set is classed as in vivo. The following applies: 24 h, 27-28° C., triplicate. The protocol:
The eggs of brine shrimp, Airtime salina (Leach), are used in monitoring bioactive compounds. The eggs are readily available in pet shops at low cost and remain viable for years in the dry state. The brine shrimp assay has advantages of being rapid (24 hrs), inexpensive, and simple. No aseptic techniques are required. It easily utilizes a large number of organisms for statistical validation and requires no special equipment and a relatively small amount of sample.
The assay was carried out with Artemia salina eggs. 50 mg of Artemia salina eggs in a beaker containing sea salt (6 g), yeast (0.9 mg) and distilled water (150 ml) were incubated at 27-28° C. for 24 hrs. The newly hatched nauplii were concentrated. From this volume, aliquots of 50 μl (approximately 18-20 nauplii) were pipette directly into a 24 well plates containing sea water (sw), −ve control (DMSO+sw), +ve control (emetine) or different concentrations of extracts (62.5-500 μg/ml). Assay was carried out in triplicate. The plates were sealed and incubated at 27-28° C. for 24 h. At the end of the 24-h incubation period, the content of each well was pipette into a watch glass individually. Survival was assessed by scoring the number of dead nauplii using a microscope. Once counts of dead nauplii had been taken, 0.5 ml of methanol was added to kill all remaining nauplii. The contents of each well were then recorded and result tabulated as (X/Y; where X number dead and Y=number of dead and alive).

The test system of the next data set is MDA-MB-435 tumor masses. The following applies: cited from earlier work.
The test system of another data set is breast cancer cells. The following applies: cited from earlier work.
A further data set concerns angiogenesis. The following applies: elicited by basic fibroblast growth factor; cited from earlier work.
A further data set relates to B16F10 solid tumor. The following applies: C57BU6 mice; cited from earlier work.

On to `CC[C@@]1(O)C(=O)OCc2c1cc1n(c2=O)Cc2cc3ccccc3nc2-1` [Camptothecin], for which, in the data set with tumor cell lines, the “inhibition of tumor cell proliferation” value was “more effective at inhibiting cell proliferation of different cell lines than the snake powder extract”.
`CC[C@H]1CN2CCc3cc(OC)c(OC)cc3[C@@H]2C[C@@H]1C[C@H]1NCCc2cc(OC)c(OC)cc21` [Emetine] registered a mortality at 62.5 µg/mL with Artemia salina nauplii (62.5 μg/ml) of 58.2%. In the data set on Artemia salina nauplii (125 μg/ml), this molecule showed a mortality at 125 µg/mL of 100%. In addition, the mortality at 250 µg/mL in the data set with Artemia salina nauplii (250 μg/ml) amounted to 100%. Besides, the mortality at 500 µg/mL in the data set with Artemia salina nauplii (500 μg/ml) is 100%.
For the molecule Contortrostatin, in the data set on MDA-MB-435 tumor masses (immunohistochemical quantitation of vascular endothelial cells in tumor tissue), the “angiogenesis induced by breast cancer” value is “inhibiting angiogenesis induced by breast cancer”. For the same molecule, in the data set with MDA-MB-435 tumor masses (injected daily at 5 microgram per mouse to tumor masses), the “inhibition of tumor growth” value is 74%. For the same molecule, the “cytotoxicity to cancer cells” value with breast cancer cells is “not cytotoxic to cancer cells”. In addition, the “proliferation of the breast cancer cells” value in the data set with breast cancer cells (in vitro) is on record as “does not inhibit proliferation”.
For Rhodostomin, in the data set with angiogenesis, the angiogenesis result is recorded as “inhibit angiogenesis”. Further, in the data set with B16F10 solid tumor, the survival result is on record as “prolonged survival” and the tumor growth result is recorded as “suppressed tumor growth”.
